Test results: patent publication US8546406B2, “Heterocyclic compounds as metap-2 inhibitors” (Merck Patent GmbH, priority 2009, dated 2013)
pIC50: −log10 of the molar value.

Key:
MetAP-2 = MetAP-2 (Homo sapiens, UniProt P50579); assay: MetAP-2 activity measurement (coupled enzymatic reactions, substrate Met-Arg-Ser, photometric at 450 nm); type: biochemical; settings: Inhibition of MetAP-2; read-out: IC50 enzyme
Experimental: The MetAP-2 activity is determined by coupling enzymatic reactions. The tripeptide Met-Arg-Ser (MAS) is employed as substrate. The methionine liberated is firstly converted into Metox and H2O2 by L-aminooxidase (AAO). In the second step, the peroxidase (POD) with the aid of the H2O2 catalyses the oxidation of the leukodye dianisidine to dianisidineox, the increase of which is detected photometrically at 450 nm.
MetAP-2 activity can be recorded continuously as kinetics. The reaction scheme illustrates that one mol of dianisidineox is formed per mol of methionene. The MetAP-2 enzyme activity can therefore be calculated directly as Δ absorption per time unit. Qualification of the MetAP-2 activity (mol of Met/time unit) is possible with the aid of the dianisidineox extinction coefficient. The change in extinction per time unit is depicted graphically and a slope calculation is carried out in the visually linear region of the reaction.

Chain of MetAP-2 (P50579 whole entry, species assumed): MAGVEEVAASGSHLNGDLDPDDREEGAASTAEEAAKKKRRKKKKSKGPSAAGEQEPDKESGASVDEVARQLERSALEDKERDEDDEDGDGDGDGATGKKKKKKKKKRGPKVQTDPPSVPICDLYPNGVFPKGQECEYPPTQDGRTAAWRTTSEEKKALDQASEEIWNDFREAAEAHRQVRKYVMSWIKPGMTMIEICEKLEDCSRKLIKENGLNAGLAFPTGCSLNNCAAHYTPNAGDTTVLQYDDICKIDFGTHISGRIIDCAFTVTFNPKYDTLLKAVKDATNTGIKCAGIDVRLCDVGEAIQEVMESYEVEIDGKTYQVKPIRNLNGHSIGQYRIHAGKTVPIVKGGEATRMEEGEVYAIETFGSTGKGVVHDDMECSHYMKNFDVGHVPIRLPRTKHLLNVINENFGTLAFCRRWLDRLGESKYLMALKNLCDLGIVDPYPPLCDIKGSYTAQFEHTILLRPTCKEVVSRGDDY

| Compound | pIC50 (MetAP-2) | melting point |
| --- | --- | --- |
| c1cnn(-c2ccnc3ncnn23)c1 [Compound A2, 7-pyrazol-1-yl-[1,2,4]triazolo[1,5-a]pyrimidine] | < 5.00 | 191 to 193 °C |
| c1cc(OC[C@H]2CCCN2c2ccnc3ncnn23)c2cccnc2c1 [Compound A5, 5-((R)-1-[1,2,4]triazolo[1,5-a]pyrimidin-7-ylpyrrolidin-2-ylmethoxy)quinoline] | 6.00 to 8.00 | 93 to 95 °C |
| O=C(OC[C@H]1CCCN1c1ccnc2ncnn12)c1cccc(OC(F)(F)F)c1 [Compound A82, (R)-1-[1,2,4]Triazolo[1,5-a]pyrimidin-7-yl-pyrrolidin-2-ylmethyl 3-trifluoromethoxy-benzoate] | 6.00 to 8.00 |  |
| OC[C@H]1CCCN1c1ccnc2ncnn12 [Compound A83] | 6.00 to 8.00 |  |
| O=S(=O)(NC[C@H]1CCCN1c1ccnc2ncnn12)c1ccc(F)cc1 [Compound A84] | 5.00 to 6.00 |  |
